Source: article PMC8151848, “Tambjamines and Prodiginines: Biocidal Activity against Trypanosoma cruzi” (Pharmaceutics, 2021)
Like-named read-outs stand apart in the source and are kept apart here.

Columns and labels:
[1] = tested on: epimastigotes of T. cruzi (CL strain, clone B5); experiment: Epimastigote susceptibility assay (monotherapy); type: cell-based, Trypanosoma cruzi
Procedure: The CL-B5 strain was stably transfected with the Escherichia coli β-galactosidase gene (lacZ) and routinely maintained in exponential growth by weekly passages. Trypomastigotes of the CL-B5 strain were obtained as previously reported.
The screening assays were performed in 96-well microplates (WWR Int LLC) containing serially diluted concentrations of each compound and seeded with 2.5 × 10^5 epimastigotes/mL harvested during the exponential growth phase. Growth, medium, and drug blanks were used in each assay as controls. An internal control of the reference drug, benznidazole, was also included. After 72 h at 28 °C, 50 µL of the substrate chlorophenol red-β-D-galactopyranoside (CPRG; Roche) diluted in 0.9% Triton X-100 solution (EMD, Darmstadt, Germany) were added at a final concentration of 200 µM. Then, after 3 h at 37 °C, measurements were performed in a scanning multiwell spectrophotometer (ELISA Multiskan Reader, BioTek Instruments, Inc., Winooski, VT, USA) at 595 nm. Each concentration was tested in triplicate and the experiments were performed three times independently. The efficacy of the compounds was calculated by determining the percentage of epimastigote growth (% EG value) as follows:(1) % Epimastigote growth=(AE−AEB)/(AC−ACB)×100 where AE is the absorbance of the experimental group, AEB the absorbance of the drug blank, AC the absorbance of the control group, and ACB the absorbance of the culture medium blank. The IC50 values (the drug concentration that eliminates 50% of the parasites) were determined for each compound using the GraphPad Prism software (Version 5.0.0 for Windows, GraphPad Software, San Diego, CA, USA).

[2] = tested on: human hepatocarcinoma cells (Hep G2); experiment: Cytotoxicity assay (resazurin) in Hep G2 cells; type: cell-based; settings: for Cytotoxicity (% cell growth inhibition) at 1 µM ± SD: Hep G2, 1 µM
Description: (§1) Mouse L-929 fibroblasts (NCTC clone 929, ECACC 88102702) were used for both drug toxicity and infection assays. Cell line was obtained from Dr. Concepció Soler, Dept. Pathology & Experimental therapeutics, Faculty of Medicine and Health Sciences, University of Barcelona, Spain. Human hepatocarcinoma Hep G2 cells (American Type Culture Collection (ATCC HB-8065)) were employed only in the drug toxicity assays and were obtained from Dr. Neus Agell, Cell Biology Research Group, Faculty of Medicine and Health Sciences, University of Barcelona, Spain.
Cells were seeded by trypsinization in 96-well microplates (L-929: 4 × 10^3 cells/well; Hep G2: 1.5 × 10^4 cells/well) and incubated for 24 h at 37 °C to allow cell attachment. On the following day, the medium was discarded and replaced with a fresh medium containing the different concentrations of the drugs. […] Medium, growth, and drug blanks were used in each test as controls. Plates were incubated again for another 24 h. After treatment, 20 µL of resazurin diluted in 1X phosphate-buffered saline (PBS; Sigma Aldrich) was added at a final concentration of 70 µM. The plates were incubated for another 24 h, after which fluorescence was measured in a microplate reader (FLUOstar OPTIMA, BMG LABTECH GmbH, Ortenberg, Germany) at an excitation wavelength of 530 nm and an emission wavelength of 590 nm. Each concentration was tested in triplicate and the experiments were repeated three times independently. Results indicated the percentage of toxicity (% T value). (3) % Toxicity=100−(AE−AEB)/(AC−ACB)×100 where AE is the absorbance of the experimental group, AEB the absorbance of the drug blank, AC the absorbance of the untreated cells, and ACB the absorbance of the culture medium blank. […]

[3] = tested on: murine L-929 fibroblasts (NCTC clone 929); experiment: Cytotoxicity assay (resazurin) in L-929 fibroblasts; type: cell-based, mouse
Description: as §1
Cells were seeded by trypsinization in 96-well microplates (L-929: 4 × 10^3 cells/well; Hep G2: 1.5 × 10^4 cells/well) and incubated for 24 h at 37 °C to allow cell attachment. On the following day, the medium was discarded and replaced with a fresh medium containing the different concentrations of the drugs. Hep G2 cells were treated with concentrations of 100, 10, and 1 µM of the different drugs, while L-929 cells were treated with a wider range of concentrations in order to calculate the IC50 value (the drug concentration that inhibits 50% of cell growth). Medium, growth, and drug blanks were used in each test as controls. Plates were incubated again for another 24 h. After treatment, 20 µL of resazurin diluted in 1X phosphate-buffered saline (PBS; Sigma Aldrich) was added at a final concentration of 70 µM. The plates were incubated for another 24 h, after which fluorescence was measured in a microplate reader (FLUOstar OPTIMA, BMG LABTECH GmbH, Ortenberg, Germany) at an excitation wavelength of 530 nm and an emission wavelength of 590 nm. Each concentration was tested in triplicate and the experiments were repeated three times independently. Results indicated the percentage of toxicity (% T value). (3) % Toxicity=100−(AE−AEB)/(AC−ACB)×100 where AE is the absorbance of the experimental group, AEB the absorbance of the drug blank, AC the absorbance of the untreated cells, and ACB the absorbance of the culture medium blank. For the L-929 fibroblasts, the IC50 values (the drug concentration that inhibits 50% of cell growth) were calculated for each compound using the GraphPad Prism software.

[4] = IC50 for L-929 fibroblasts / IC50 for T. cruzi epimastigotes
[5] = Trypanosoma cruzi, CLB strain, 72 h at 28 °C, mean ± SD, read-out: IC50 (µM) in epimastigotes of T. cruzi
[6] = Homo sapiens, HepG2, read-out: IC50 (µM) Hep G2 cell growth inhibition
[7] = Mus musculus, L929, read-out: IC50 (µM) L-929 cell growth inhibition

Compound | Selectivity index (SI), Epimastigotes [1, 4] | IC50 [1, 5] [µM] | IC50 [2, 6] [µM] | IC50 [3, 7] [µM] | Cytotoxicity (% cell growth inhibition) at 1 µM ± SD ([2]; n = 9) [%] | also measured
O=C(Cn1ccnc1[N+](=O)[O-])NCc1ccccc1 [Benznidazole, reference compound] | 72.37 | 19 ± 7.07 | > 100 | 1372.3 ± 0.5 |  | 
CCCCCC1=C/C(=C/c2[nH]c(-c3ccc[nH]3)cc2OC)N=C1C [Natural prodigiosin, prodigiosin] | 9.25 |  |  |  | 2.29 ± 3.97 | IC50 ([1]; read-out: IC50 (µM) in epimastigotes of T. cruzi, CLB strain, 72 h at 28 °C, mean ± SD): 0.54 ± 0.25 µM; Cytotoxicity (% cell growth inhibition) at 10 µM ± SD ([2]; Hep G2, 10 µM, n = 9, 10 µM): 87.97 ± 5.94%; IC50 ([2]; read-out: IC50 (µM) Hep G2 cell growth inhibition, Hep G2): 6.02 ± 0.5 µM; IC50 ([3]; Mus musculus, L929, read-out: IC50 (µM) L-929 cell growth inhibition, L-929): 5 ± 0.83 µM
COC1=CC(c2cc3ccccc3[nH]2)=N/C1=C\c1[nH]c(C)cc1C [Obatoclax, reference compound] |  | 3.46 ± 0.96 | 8.18 ± 1.87 | 5.83 ± 1.07 |  | Selectivity index (SI), Epimastigotes [1]: 1.68
CCCCCC1=C/C(=C/c2[nH]c(-c3ccc[nH]3)cc2OC)N=C1C [Synthetic prodigiosin, prodigiosin] | 6.65 |  |  |  | 15 ± 6.12 | IC50 ([1]; Trypanosoma cruzi, 72 h, read-out: IC50 (µM) in epimastigotes of T. cruzi, CLB strain, 72 h at 28 °C, mean ± SD): 0.46 ± 0.03 µM; IC50 ([2]; Homo sapiens, HepG2, read-out: IC50 (µM) Hep G2 cell growth inhibition, Hep G2): 5.15 ± 0.39 µM; % Cytotoxicity ± SD ([3]; L-929, 16 µM, n = 9, 16 µM): 95.75 ± 0.06%; IC50 ([3]; read-out: IC50 (µM) L-929 cell growth inhibition, L-929): 3.06 ± 0.01 µM
CCc1c(-c2ccc[nH]2)[nH]c(/C=N/C2CCCCC2)c1C [MM3] | 2.70 | 4.52 ± 1.43 | 46 ± 8.15 | 12.2 ± 0.28 |  | 
CCc1c(-c2ccc[nH]2)[nH]c(/C=N/c2ccc(C(C)(C)C)cc2)c1C [MM4] | 2.76 | 5.08 ± 0.62 | 52.5 ± 9.21 | 14 ± 1.28 |  | 
